Assay results: US8816119B2, “Arylamide derivatives having antiandrogenic properties” (Medeia Therapeutics Ltd, priority 2010, dated 2014)
Substitutions are numbered along the chain they refer to.

Key:
Assay type in all cases: cell-based
[1] = molecular target: T1, WT AR (Homo sapiens, UniProt P10275); test: Antagonism in WT AR, AR transactivation reporter gene assay in COS-1 cells, competitive setting with 50 nM testosterone; details: 18 h
T1 construct: expressed in transfected cells; host or cells: COS-1
T1 sequence (P10275 1-920): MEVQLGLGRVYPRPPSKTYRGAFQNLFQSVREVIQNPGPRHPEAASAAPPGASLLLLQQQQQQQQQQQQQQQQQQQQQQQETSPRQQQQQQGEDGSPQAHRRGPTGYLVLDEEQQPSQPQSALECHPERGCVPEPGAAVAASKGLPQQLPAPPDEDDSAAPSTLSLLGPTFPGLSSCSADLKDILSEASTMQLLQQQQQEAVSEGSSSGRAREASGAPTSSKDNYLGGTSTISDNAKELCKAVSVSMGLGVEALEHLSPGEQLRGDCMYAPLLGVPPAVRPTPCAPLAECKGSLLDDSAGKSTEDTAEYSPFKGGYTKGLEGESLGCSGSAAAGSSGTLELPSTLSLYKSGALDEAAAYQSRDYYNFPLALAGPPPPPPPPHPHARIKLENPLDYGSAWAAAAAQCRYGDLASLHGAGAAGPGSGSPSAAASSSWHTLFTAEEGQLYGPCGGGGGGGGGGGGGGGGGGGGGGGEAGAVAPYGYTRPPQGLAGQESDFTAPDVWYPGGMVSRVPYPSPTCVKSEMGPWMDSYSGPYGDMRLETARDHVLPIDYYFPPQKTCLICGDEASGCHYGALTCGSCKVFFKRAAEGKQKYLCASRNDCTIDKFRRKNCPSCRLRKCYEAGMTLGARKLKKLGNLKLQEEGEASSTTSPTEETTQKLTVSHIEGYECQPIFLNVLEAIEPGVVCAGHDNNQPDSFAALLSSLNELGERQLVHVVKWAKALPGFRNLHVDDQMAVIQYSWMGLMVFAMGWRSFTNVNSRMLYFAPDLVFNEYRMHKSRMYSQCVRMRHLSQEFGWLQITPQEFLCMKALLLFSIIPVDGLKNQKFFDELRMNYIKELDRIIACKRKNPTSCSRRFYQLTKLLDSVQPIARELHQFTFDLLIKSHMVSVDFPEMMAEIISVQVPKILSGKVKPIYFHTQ
Procedure: After 18 h, reporter gene activities (LUC and beta-galactosidase) were determined according to standard methods. The data are expressed as relative LUC activity (luciferase light units divided by beta-galactosidase A420nm to control for transfection efficiency) of a given compound in relation to the activity of a reference test item (=100%).
Antagonism in WT AR of compounds of the present invention was measured in AR transctivation assay in COS-1 cells in competitive setting using testosterone as a reference agonist as described above. […] Relative LUC activity representing AR-dependent transcription obtained by exposure to testosterone alone was set to 100%.

[2] = molecular target: T2, W741L AR (Homo sapiens, UniProt P10275, W742L); test: Agonism in W741L mutant AR, AR transactivation assay in COS-1 cells, test compounds alone; details: 10 microM, compound alone
T2 construct: expressed in transfected cells; host or cells: COS-1
T2 sequence (P10275 1-920 W742L): T1 sequence (P10275 1-920) with W742L
Procedure: COS-1 (American Type Culture Collection) were cultured in DMEM supplemented with 10% FBS, penicillin (6.25 U/ml) and streptomycin (6.25 μg/ml) and seeded onto 48-well plates (50 000 cells/well) one day before transfection. Transfection media containing 2.5% charcoal-stripped FBS in DMEM was changed on cells 4 h prior to transfection. Cells were transfected with 50 ng of reporter gene plasmid (pPB-286/+32-LUC; PB, probasin promoter), 5 ng of AR expression plasmid (pSG5-hAR), and 5 ng of pCMVβ (an internal, beta-galactosidase control for transfection efficiency and cell growth) using TranslT-LT1 reagent (Mirus Bio Corporation) according to the manufacturer's instructions. […] After 18 h, reporter gene activities (LUC and beta-galactosidase) were determined according to standard methods. The data are expressed as relative LUC activity (luciferase light units divided by beta-galactosidase A420nm to control for transfection efficiency) of a given compound in relation to the activity of a reference test item (=100%).
Agonism in W741L AR of compounds of the present invention was measured in AR transactivation assay in COS-1 cells as described above except that AR expression vector harboring the W741L mutation was used instead of the WT AR. The transfected cells were exposed to test compounds alone.

[3] = molecular target: T3, T877A AR (Homo sapiens, UniProt P10275, T878A); test: Agonism in T877A mutant AR, AR transactivation assay in COS-1 cells, test compounds alone; details: 10 microM, compound alone
T3 construct: expressed in transfected cells; host or cells: COS-1
T3 sequence (P10275 1-920 T878A): T1 sequence (P10275 1-920) with T878A
Excerpt: The transfected cells were exposed to test compounds alone. Testosterone was used as reference agonist, and its' relative LUC activity representing AR-dependent transcription was set to 100%.

Row | SMILES | Relative LUC activity (%) indicating residual androgen activity in relation to testosterone (100%) ([1]; 1 microM compound) [%] | Relative LUC activity (%) indicating residual androgen activity in relation to testosterone (100%) ([1]; 10 microM compound) [%] | Relative LUC activity (%) in W741L AR in relation to BIC (100%) [2] [%] | Relative LUC activity (%) in T877A AR in relation to testosterone (100%) [3] [%]
1 | COc1ccc(C(O)(CS(=O)(=O)Cc2ccc(F)cc2)C(=O)Nc2ccc(C#N)c(Cl)c2)cc1F (stereo not shown) [Example 32, N-(3-chloro-4-cyanophenyl)-2-(3-fluoro-4-methoxyphenyl)-3-{[(4-fluorophenyl)methane]sulfonyl}-2-hydroxypropanamide] | 24 | 2 | 3 | 2
2 | CCS(=O)(=O)CC(O)(C(=O)Nc1ccc(C#N)c(Cl)c1)c1ccc(OC)c(F)c1 (stereo not shown) [Example 25, N-(3-chloro-4-cyanophenyl)-2-((3-fluoro-4-methoxy)phenyl)-3-(ethanesulfonyl)-2-hydroxypropanamide] | 22 | 6 | 9 | 9
3 | N#Cc1ccc(NC(=O)C(O)(CS(=O)(=O)Cc2ccc(Cl)cc2)c2ccc(Cl)cc2)cc1Cl (stereo not shown) [Example 27, N-[3-chloro-4-cyanophenyl]-3-{[(4-chlorophenyl)methane]sulfonyl}-2-hydroxy-2-[4-(chloro)phenyl]propanamide] | 14 | 1 | 6 | 1
4 | N#Cc1ccc(NC(=O)C(O)(CS(=O)(=O)Cc2ccc(F)cc2)c2cccc(C(F)(F)F)c2)cc1Cl (stereo not shown) [Example 40, N-(3-chloro-4-cyanophenyl)-3-{[(4-fluorophenyl)methane]sulfonyl}-2-hydroxy-2-[3-(trifluoromethyl)phenyl]propanamide] | 22 | 2 | 2 | 1
5 | N#Cc1ccc(NC(=O)C(O)(CS(=O)(=O)c2ccc(F)cc2)c2ccc(C(F)(F)F)cc2)cc1Cl (stereo not shown) [Example 4, N-(3-chloro-4-cyanophenyl)-3-[(4-fluorobenzene)sulfonyl]-2-hydroxy-2-[4-(trifluoromethyl)phenyl]propanamide] | 21 | 1 | 8 | 1
6 | N#Cc1ccc(NC(=O)C(O)(CS(=O)(=O)c2ccc(F)cc2)c2ccc(C(F)(F)F)cc2)cc1C(F)(F)F (stereo not shown) [Example 21, N-(4-cyano-3-(trifluoromethyl)phenyl)-3-[(4-fluorobenzene)sulfonyl]-2-hydroxy-2-[4-(trifluoromethyl)phenyl]propanamide] | 24 | 1 | 3 | 4
7 | N#Cc1ccc(NC(=O)C(O)(CS(=O)(=O)Cc2ccco2)c2ccc(C(F)(F)F)cc2)cc1C(F)(F)F (stereo not shown) [Example 3, N-[4-cyano-3-(trifluoro-methyl)phenyl]-3-[(furan-2-ylmethane)sulfonyl]-2-hydroxy-2-[4-(trifluoromethyl)phenyl]propanamide] | 17 | 3 | 4 | 3
